Results published in ChEMBL document CHEMBL1140623, “CC chemokine receptor-3 (CCR3) antagonists: improving the selectivity of DPC168 by reducing central ring lipophilicity” (Bioorg Med Chem Lett, 2007).

Legend:
in vitro [1] = conditions: human, Caco-2
in vivo [2] = conditions: BALB/c, mouse
in vivo [3] = conditions: BALB/c, mouse; remark: listed apart in the source
in vivo [4] = conditions: chimpanzee
in vivo [5] = conditions: chimpanzee; remark: listed apart in the source
in vivo [6] = conditions: chimpanzee; remark: listed apart in the source
in vivo [7] = conditions: cynomolgus monkey
in vitro [8] = conditions: human, liver microsomes
in vivo [9] = conditions: BALB/c, mouse; remark: listed apart in the source
in vivo [10] = conditions: cynomolgus monkey; remark: listed apart in the source
in vivo [11] = conditions: cynomolgus monkey; remark: listed apart in the source

CC(=O)c1sc(NC(=O)N[C@@H]2CN(C(C)=O)CC[C@H]2CN2CCC[C@@H](Cc3ccc(F)cc3)C2)nc1C
Papp (in vitro [1]): 2.8 ×10⁻⁶ cm/s
clearance (in vivo [2]): 41.7 mL/min/kg
half-life (in vivo [3]): 1.2 h
half-life (in vivo [4]): 4.5 h
bioavailability (in vivo [5]): 7%
clearance (in vivo [6]): 21.7 mL/min/kg
clearance (in vivo [7]): 14.5 mL/min/kg
CLint scaled (in vitro [8]): 16 mL/min/kg
bioavailability (in vivo [9]): 25%
bioavailability (in vivo [10]): 18%
half-life (in vivo [11]): 5.5 h
